Results reported in ChEMBL document CHEMBL1201861, “Genomics of Drug Sensitity in Cancer screening data, Wellcome Trust Sanger Institute”.

What was measured:
Assay in all cases: cells
TE-8 = assay type: functional, cell-based, Homo sapiens; details: Homo sapiens, TE-8;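 note: growth inhibition of TE-8 cells, measured with a cell viability readout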
Description: SANGER: Inhibition of human TE-8 cell growth in a cell viability assay.

NCI-H1395 = assay type: functional, cell-based, Homo sapiens; details: Homo sapiens, NCI-H1395;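 note: cell viability assay read-out quantifying reduced proliferation of human NCI-H1395 cells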
Description: SANGER: Inhibition of human NCI-H1395 cell growth in a cell viability assay.

NMC-G1 = assay type: functional, cell-based, Homo sapiens; details: Homo sapiens, NMC-G1;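 note: growth inhibition of the NMC-G1 cell line, measured with a cell viability read-out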
Description: SANGER: Inhibition of human NMC-G1 cell growth in a cell viability assay.

EW-16 = assay type: functional, cell-based, Homo sapiens; details: Homo sapiens, EW-16;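 note: growth inhibition of human EW-16 cells, read out as cell viability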
Description: SANGER: Inhibition of human EW-16 cell growth in a cell viability assay.

KM-H2 = assay type: functional, cell-based, Homo sapiens; details: Homo sapiens, KM-H2;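 note: growth inhibition of KM-H2 cells, read out by a cell viability assay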
Description: SANGER: Inhibition of human KM-H2 cell growth in a cell viability assay.

NCI-H1581 = assay type: functional, cell-based, Homo sapiens; details: Homo sapiens, NCI-H1581;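 note: cell growth inhibition read out by a viability assay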
Description: SANGER: Inhibition of human NCI-H1581 cell growth in a cell viability assay.

CTB-1 = assay type: functional, cell-based, Homo sapiens; details: Homo sapiens, CTB-1
Description: SANGER: Inhibition of human CTB-1 cell growth in a cell viability assay.

RPMI-8226 = assay type: functional, cell-based, Homo sapiens; details: Homo sapiens, RPMI-8226
Description: SANGER: Inhibition of human RPMI-8226 cell growth in a cell viability assay.

COLO-800 = assay type: functional, cell-based, Homo sapiens; details: Homo sapiens, COLO-800;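 note: growth inhibition of COLO-800 cells, read out with a cell viability assay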
Description: SANGER: Inhibition of human COLO-800 cell growth in a cell viability assay.

OVCAR-4 = assay type: functional, cell-based, Homo sapiens; details: Homo sapiens, OVCAR-4;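 note: growth inhibition of human OVCAR-4 cells, measured with a cell viability assay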
Description: SANGER: Inhibition of human OVCAR-4 cell growth in a cell viability assay.

NCI-H69 = assay type: functional, cell-based, Homo sapiens; details: Homo sapiens, NCI-H69;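 note: growth inhibition of the cell line, read out with a cell viability assay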
Description: SANGER: Inhibition of human NCI-H69 cell growth in a cell viability assay.

LC-2-ad = assay type: functional, cell-based, Homo sapiens; details: Homo sapiens, LC-2-ad;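 note: growth inhibition of human LC-2-ad cells, read out with a cell viability assay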
Description: SANGER: Inhibition of human LC-2-ad cell growth in a cell viability assay.

NCI-H1648 = assay type: functional, cell-based, Homo sapiens; details: Homo sapiens, NCI-H1648;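 note: cell viability assay measuring inhibition of NCI-H1648 cell growth, from the Sanger screening data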
Description: SANGER: Inhibition of human NCI-H1648 cell growth in a cell viability assay.

SK-MEL-1 = assay type: functional, cell-based, Homo sapiens; details: Homo sapiens, SK-MEL-1;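 note: growth inhibition of human SK-MEL-1 cells, read out by a cell viability assay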
Description: SANGER: Inhibition of human SK-MEL-1 cell growth in a cell viability assay.

LAN-6 = assay type: functional, cell-based, Homo sapiens; details: Homo sapiens, LAN-6;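 note: growth inhibition of LAN-6 cells, determined with a cell viability assay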
Description: SANGER: Inhibition of human LAN-6 cell growth in a cell viability assay.

Lu-65 = assay type: functional, cell-based, Homo sapiens; details: Homo sapiens, Lu-65;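 note: growth inhibition of Lu-65 cancer cells, read out by a cell viability assay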
Description: SANGER: Inhibition of human LU-65 cell growth in a cell viability assay.

C8166 = assay type: functional, cell-based, Homo sapiens; details: Homo sapiens, C8166;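 note: growth inhibition of human C8166 cells measured by a cell viability assay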
Description: SANGER: Inhibition of human C8166 cell growth in a cell viability assay.

RS4-11 = assay type: functional, cell-based, Homo sapiens; details: Homo sapiens, RS4-11;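 note: growth inhibition of RS4-11 cells, read out by a cell viability assay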
Description: SANGER: Inhibition of human RS4-11 cell growth in a cell viability assay.

RCC10RGB = assay type: functional, cell-based, Homo sapiens; details: Homo sapiens, RCC10RGB;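 note: growth inhibition of human RCC10RGB cells, read out by a cell viability assay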
Description: SANGER: Inhibition of human RCC10RGB cell growth in a cell viability assay.

GI-ME-N = assay type: functional, cell-based, Homo sapiens; details: Homo sapiens, GI-ME-N;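 note: growth inhibition of human GI-ME-N cells, read out with a cell viability assay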
Description: SANGER: Inhibition of human GI-ME-N cell growth in a cell viability assay.

MN-60 = assay type: functional, cell-based, Homo sapiens; details: Homo sapiens, MN-60;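 note: growth inhibition of the MN-60 cell line, determined with a cell viability assay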
Description: SANGER: Inhibition of human MN-60 cell growth in a cell viability assay.

TGW = assay type: functional, cell-based, Homo sapiens; details: Homo sapiens, TGW;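 note: growth inhibition of human TGW cells, read out with a cell viability assay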
Description: SANGER: Inhibition of human TGW cell growth in a cell viability assay.

SCH = assay type: functional, cell-based, Homo sapiens; details: Homo sapiens, SCH;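 note: growth inhibition of human SCH cells, read out in a cell viability assay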
Description: SANGER: Inhibition of human SCH cell growth in a cell viability assay.

DB = assay type: functional, cell-based, Homo sapiens; details: Homo sapiens, DB
Description: SANGER: Inhibition of human DB cell growth in a cell viability assay.

SBC-1 = assay type: functional, cell-based, Homo sapiens; details: Homo sapiens, SBC-1;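 note: cell viability assay measuring growth inhibition of the SBC-1 cell line, IC50 being the concentration that halves growth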
Description: SANGER: Inhibition of human SBC-1 cell growth in a cell viability assay.

KS-1 = assay type: functional, cell-based; details: Homo sapiens;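 note: growth inhibition of KS-1 cells, read out with a cell viability assay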
Description: SANGER: Inhibition of human KS-1 cell growth in a cell viability assay.

LNCaP-Clone-FGC = assay type: functional, cell-based, Homo sapiens; details: Homo sapiens, LNCaP-Clone-FGC
Description: SANGER: Inhibition of human LNCaP-Clone-FGC cell growth in a cell viability assay.

no-11 = assay type: functional, cell-based, Homo sapiens; details: Homo sapiens;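 note: growth inhibition of human NO-11 cells, read out with a cell viability assay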
Description: SANGER: Inhibition of human no-11 cell growth in a cell viability assay.

SK-UT-1 = assay type: functional, cell-based, Homo sapiens; details: Homo sapiens, SK-UT-1;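 note: growth inhibition of SK-UT-1 cells, measured by a cell viability assay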
Description: SANGER: Inhibition of human SK-UT-1 cell growth in a cell viability assay.

NCI-H1092 = assay type: functional, cell-based, Homo sapiens; details: Homo sapiens, NCI-H1092;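 note: cell growth inhibition measured with a cell viability assay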
Description: SANGER: Inhibition of human NCI-H1092 cell growth in a cell viability assay.

HD-MY-Z = assay type: functional, cell-based, Homo sapiens; details: Homo sapiens, HD-MY-Z;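 note: growth inhibition of HD-MY-Z cells, read out with a cell viability assay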
Description: SANGER: Inhibition of human HD-MY-Z cell growth in a cell viability assay.

GOTO = assay type: functional, cell-based, Homo sapiens; details: Homo sapiens, GOTO;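 note: growth inhibition of GOTO cells, read out by a cell viability assay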
Description: SANGER: Inhibition of human GOTO cell growth in a cell viability assay.

KURAMOCHI = assay type: functional, cell-based, Homo sapiens; details: Homo sapiens, KURAMOCHI;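 note: growth inhibition of KURAMOCHI cells, read out with a cell viability assay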
Description: SANGER: Inhibition of human KURAMOCHI cell growth in a cell viability assay.

NB10 = assay type: functional, cell-based, Homo sapiens; details: Homo sapiens, NB10;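 note: growth inhibition of NB10 cells, read out by a cell viability assay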
Description: SANGER: Inhibition of human NB10 cell growth in a cell viability assay.

HEL = assay type: functional, cell-based, Homo sapiens; details: Homo sapiens, HEL;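 note: growth inhibition of HEL cells, read out with a cell viability assay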
Description: SANGER: Inhibition of human HEL cell growth in a cell viability assay.

IST-SL1 = assay type: functional, cell-based, Homo sapiens; details: Homo sapiens, IST-SL1;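 note: growth inhibition of human IST-SL1 cells, read out with a cell viability assay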
Description: SANGER: Inhibition of human IST-SL1 cell growth in a cell viability assay.

MOLT-16 = assay type: functional, cell-based, Homo sapiens; details: Homo sapiens, MOLT-16;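 note: growth inhibition of human MOLT-16 cells, read out with a cell viability assay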
Description: SANGER: Inhibition of human MOLT-16 cell growth in a cell viability assay.

HAL-01 = assay type: functional, cell-based, Homo sapiens; details: Homo sapiens, HAL-01;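 note: growth inhibition of human HAL-01 cells, read out with a cell viability assay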
Description: SANGER: Inhibition of human HAL-01 cell growth in a cell viability assay.

NCI-H23 = assay type: functional, cell-based, Homo sapiens; details: Homo sapiens, NCI-H23;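 note: cell viability assay measuring growth inhibition of NCI-H23 cells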
Description: SANGER: Inhibition of human NCI-H23 cell growth in a cell viability assay.

COLO-829 = assay type: functional, cell-based, Homo sapiens; details: Homo sapiens, COLO-829
Description: SANGER: Inhibition of human COLO-829 cell growth in a cell viability assay.

GT3TKB = assay type: functional, cell-based, Homo sapiens; details: Homo sapiens, GT3TKB;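 note: growth inhibition of the cell line, read out with a cell viability assay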
Description: SANGER: Inhibition of human GT3TKB cell growth in a cell viability assay.

ONS-76 = assay type: functional, cell-based, Homo sapiens; details: Homo sapiens, ONS-76;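 note: growth inhibition of human ONS-76 cells, read out with a cell viability assay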
Description: SANGER: Inhibition of human ONS-76 cell growth in a cell viability assay.

ALL-PO = assay type: functional, cell-based, Homo sapiens; details: Homo sapiens, ALL-PO;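 note: growth inhibition of ALL-PO cells, read out by a cell viability assay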
Description: SANGER: Inhibition of human ALL-PO cell growth in a cell viability assay.

NKM-1 = assay type: functional, cell-based, Homo sapiens; details: Homo sapiens, NKM-1;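 note: growth inhibition of NKM-1 cells, read out with a cell viability assay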
Description: SANGER: Inhibition of human NKM-1 cell growth in a cell viability assay.

NCI-H1838 = assay type: functional, cell-based, Homo sapiens; details: Homo sapiens, NCI-H1838;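 note: growth inhibition of NCI-H1838 cells, determined with a cell viability readout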
Description: SANGER: Inhibition of human NCI-H1838 cell growth in a cell viability assay.

KALS-1 = assay type: functional, cell-based, Homo sapiens; details: Homo sapiens, KALS-1; read-out: IC50;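 note: growth inhibition of KALS-1 cells, determined with a cell viability assay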
Description: SANGER: Inhibition of human KALS-1 cell growth in a cell viability assay.

ATN-1 = assay type: functional, cell-based, Homo sapiens; details: Homo sapiens, ATN-1;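 note: growth inhibition of human ATN-1 cells, read out with a cell viability assay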
Description: SANGER: Inhibition of human ATN-1 cell growth in a cell viability assay.

LXF-289 cell line = assay type: functional, cell-based; details: Homo sapiens
Description: SANGER: Inhibition of human LXF-289 cell growth in a cell viability assay.

NB5 = assay type: functional, cell-based, Homo sapiens; details: Homo sapiens, NB5;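 note: growth inhibition of NB5 cells, read out as cell viability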
Description: SANGER: Inhibition of human NB5 cell growth in a cell viability assay.

C/C(=C\c1csc(C)n1)[C@@H]1C[C@@H]2O[C@]2(C)CCC[C@H](C)[C@H](O)[C@@H](C)C(=O)C(C)(C)[C@@H](O)CC(=O)O1 [PATUPILONE]
IC50 (TE-8): 0.111 nM | IC50 (NCI-H1395): > 32 nM | IC50 (NMC-G1): 1.75 nM | IC50 (EW-16): 1.06 nM | IC50 (KM-H2): 9.06 nM | IC50 (NCI-H1581): > 32 nM | IC50 (CTB-1): 8.31 nM | IC50 (RPMI-8226): 6.71 nM | IC50 (COLO-800): > 32 nM | IC50 (OVCAR-4): 1.61 nM | IC50 (NCI-H69): 14.8 nM | IC50 (LC-2-ad): < 0.125 nM | IC50 (NCI-H1648): 0.982 nM | IC50 (SK-MEL-1): > 32 nM | IC50 (LAN-6): > 32 nM | IC50 (Lu-65): 21 nM | IC50 (C8166): 31.7 nM | IC50 (RS4-11): 2.02 nM | IC50 (RCC10RGB): 19.7 nM | IC50 (GI-ME-N): 6.08 nM | IC50 (MN-60): > 32 nM | IC50 (TGW): 13.5 nM | IC50 (SCH): > 32 nM | IC50 (DB): 7.11 nM | IC50 (SBC-1): > 32 nM | IC50 (KS-1): 1.76 nM | IC50 (LNCaP-Clone-FGC): 4.26 nM | IC50 (no-11): > 32 nM | IC50 (SK-UT-1): 0.892 nM | IC50 (NCI-H1092): > 32 nM | IC50 (HD-MY-Z): 23.3 nM | IC50 (GOTO): > 32 nM | IC50 (KURAMOCHI): 6.05 nM | IC50 (NB10): 11 nM | IC50 (HEL): 4.14 nM | IC50 (IST-SL1): 6.37 nM | IC50 (MOLT-16): 3.41 nM | IC50 (HAL-01): 5.02 nM | IC50 (NCI-H23): 23.8 nM | IC50 (COLO-829): > 32 nM | IC50 (GT3TKB): 0.655 nM | IC50 (ONS-76): 4.1 nM | IC50 (ALL-PO): 1.47 nM | IC50 (NKM-1): 2.1 nM | IC50 (NCI-H1838): > 32 nM | IC50 (KALS-1): 3.19 nM | IC50 (ATN-1): 3.47 nM | IC50 (LXF-289 cell line): 0.227 nM | IC50 (NB5): 10.6 nM
